Assay results: ChEMBL document CHEMBL4673372, “1,2,3-triazole-thiazole hybrids: Synthesis, in vitro antimicrobial activity and antibiofilm studies” (Bioorg Med Chem Lett, 2021); call rule not given here
≈ marks a conversion by molar mass, not a printed value.

Legend:
[1] = Selectivity index, ratio of CC50 for human THP-1 cells to MIC for Staphylococcus aureus MTCC 96; format: toxicity
Micrococcus luteus [2] = assay: Inhibition of biofilm formation in Micrococcus luteus MTCC 2470 incubated for 24 hrs by crystal violet staining based microtiter plate method; format: functional, organism-based
Escherichia coli [3] = assay: Inhibition of biofilm formation in Escherichia coli MTCC 739 incubated for 24 hrs by crystal violet staining based microtiter plate method; format: functional, organism-based
Staphylococcus aureus [4] = assay: Antibacterial activity against Staphylococcus aureus MLS16 MTCC 2940 assessed as inhibition of bacterial growth by microtiter broth dilution method; format: functional
Raoultella planticola [5] = assay: Bactericidal activity against Klebsiella planticola MTCC 530; format: functional
Bacillus subtilis [6] = assay: Antibacterial activity against Bacillus subtilis MTCC 121 assessed as inhibition of bacterial growth by microtiter broth dilution method; format: functional
Raoultella planticola [7] = assay: Antibacterial activity against Klebsiella planticola MTCC 530 assessed as inhibition of bacterial growth by microtiter broth dilution method; format: functional
Pichia kudriavzevii = assay: Antifungal activity against Candida krusei MTCC 3020; format: functional
Nakaseomyces glabratus = assay: Antifungal activity against Candida glabrata MTCC 3019; format: functional
Pichia sporocuriosa [8] = assay: Fungicidal activity against Issatchenkia hanoiensis MTCC 4755; format: functional
Candida albicans [9] = assay: Antifungal activity against Candida albicans MTCC 4748; format: functional
Bacillus subtilis [10] = assay: Inhibition of biofilm formation in Bacillus subtilis MTCC 121 incubated for 24 hrs by crystal violet staining based microtiter plate method; format: functional, organism-based; settings: Bacillus subtilis, MTCC 121, 24 h; read-out: IC50
Micrococcus luteus [11] = assay: Antibacterial activity against Micrococcus luteus MTCC 2470 assessed as inhibition of bacterial growth by microtiter broth dilution method; format: functional
Micrococcus luteus [12] = assay: Bactericidal activity against Micrococcus luteus MTCC 2470; format: functional
THP-1 [13] = assay: Cytotoxicity against human THP-1 cells assessed as reduction in cell viability at 200 uM by MTT assay; format: cell-based; settings: thp-1, 200 µM
Candida albicans [14] = assay: Antifungal activity against Candida albicans MTCC 3018; format: functional
Candida albicans [15] = assay: Antifungal activity against Candida albicans MTCC 227; format: functional
[16] = Cytotoxicity against human THP-1 cells; format: cell-based
Staphylococcus aureus [17] = assay: Inhibition of biofilm formation in Staphylococcus aureus MLS16 MTCC 2940 incubated for 24 hrs by crystal violet staining based microtiter plate method; format: functional, organism-based
Staphylococcus aureus [18] = assay: Inhibition of biofilm formation in Staphylococcus aureus […] incubated for 24 hrs by crystal violet staining based microtiter plate method; format: functional, organism-based
Candida albicans [19] = assay: Antifungal activity against Candida albicans MTCC 1637; format: functional
Pseudomonas aeruginosa [20] = assay: Inhibition of biofilm formation in Pseudomonas aeruginosa MTCC 2453 incubated for 24 hrs by crystal violet staining based microtiter plate method; format: functional, organism-based
Pseudomonas aeruginosa [21] = assay: Antibacterial activity against Pseudomonas aeruginosa MTCC 2453 assessed as inhibition of bacterial growth by microtiter broth dilution method; format: functional
Pseudomonas aeruginosa [22] = assay: Bactericidal activity against Pseudomonas aeruginosa MTCC 2453; format: functional
Candida albicans [23] = assay: Inhibition of biofilm formation in Candida albicans MTCC 3017 incubated for 24 hrs by crystal violet staining based microtiter plate method; format: functional, organism-based
Candida albicans [24] = assay: Antifungal activity against Candida albicans MTCC 854; format: functional
[Candida] aaseri = Antifungal activity against Candida aaseri MTCC 1962; format: functional; settings: Yamadazyma aaseri
Escherichia coli [25] = assay: Antibacterial activity against Escherichia coli MTCC 739 assessed as inhibition of bacterial growth by microtiter broth dilution method; format: functional
Bacillus subtilis [26] = assay: Bactericidal activity against Bacillus subtilis MTCC 121; format: functional
Raoultella planticola [27] = assay: Inhibition of biofilm formation in Klebsiella planticola MTCC 530 incubated for 24 hrs by crystal violet staining based microtiter plate method; format: functional, organism-based; settings: Klebsiella planticola, MTCC 530, 24 h; read-out: IC50
Candida parapsilosis = assay: Antifungal activity against Candida parapsilosis MTCC 1745; format: functional; settings: Lodderomyces parapsilosis
Staphylococcus aureus [28] = assay: Bactericidal activity against Staphylococcus aureus MTCC 96; format: functional
Candida albicans [29] = assay: Fungicidal activity against Candida albicans MTCC 854; format: functional
THP-1 [30] = assay: Cytotoxicity against human THP-1 cells assessed as cell damage at 200 uM by LDH assay; format: cell-based; settings: thp-1, 200 µM
Candida albicans [31] = assay: Fungicidal activity against Candida albicans MTCC 183; format: functional
Candida albicans [32] = assay: Antifungal activity against Candida albicans MTCC 183; format: functional
Pichia sporocuriosa [33] = assay: Antifungal activity against Issatchenkia hanoiensis MTCC 4755; format: functional
Staphylococcus aureus [34] = assay: Antibacterial activity against Staphylococcus aureus MTCC 96 assessed as inhibition of bacterial growth by microtiter broth dilution method; format: functional
Candida albicans [35] = assay: Antifungal activity against Candida albicans MTCC 3958; format: functional
Escherichia coli [36] = assay: Bactericidal activity against Escherichia coli MTCC 739; format: functional
[37] = Escherichia coli, MTCC 739, 24 h, read-out: IC50
[38] = Pseudomonas aeruginosa, MTCC 2453, 24 h, read-out: IC50
[39] = Candida albicans, MTCC 3017, 24 h, read-out: IC50
[40] = Staphylococcus aureus, MTCC 92, 24 h, read-out: IC50

COc1ccc(-n2cc(COc3ccc(/C=N/Nc4nc(-c5cc6ccccc6oc5=O)cs4)cc3)nn2)cc1
selectivity ratio [1]: 2.58
IC50 (Micrococcus luteus [2]): Not Active
IC50 (Escherichia coli [3]; [37]): 31.3 µM
MIC (Staphylococcus aureus [4]): > 227 µM
MBC (Raoultella planticola [5]): 28.3 µM (≈ 15.6 µg/mL)
MIC (Bacillus subtilis [6]): 7 µM (≈ 3.85 µg/mL)
MIC (Raoultella planticola [7]): 14.1 µM (≈ 7.76 µg/mL)
MIC (Pichia kudriavzevii): > 227 µM
MIC (Nakaseomyces glabratus): > 227 µM
MFC (Pichia sporocuriosa [8]): 14.2 µM (≈ 7.82 µg/mL)
MIC (Candida albicans [9]): > 227 µM
IC50 (Bacillus subtilis [10]): 6.6 µM
MIC (Micrococcus luteus [11]): 7 µM (≈ 3.85 µg/mL)
MBC (Micrococcus luteus [12]): 14.1 µM (≈ 7.76 µg/mL)
Activity (THP-1 [13]): Toxic
MIC (Candida albicans [14]): > 227 µM
MIC (Candida albicans [15]): > 227 µM
CC50 [16]: 36.3 µM
IC50 (Staphylococcus aureus [17]): Not Active
IC50 (Staphylococcus aureus [18]): Not Active
MIC (Candida albicans [19]): > 227 µM
IC50 (Pseudomonas aeruginosa [20]; [38]): 19.5 µM
MIC (Pseudomonas aeruginosa [21]): 14.1 µM (≈ 7.76 µg/mL)
MBC (Pseudomonas aeruginosa [22]): 56.6 µM (≈ 31.2 µg/mL)
IC50 (Candida albicans [23]; [39]): 63.5 µM
MIC (Candida albicans [24]): 7.1 µM (≈ 3.91 µg/mL)
MIC ([Candida] aaseri): > 227 µM
MIC (Escherichia coli [25]): > 227 µM
MBC (Bacillus subtilis [26]): 14.1 µM (≈ 7.76 µg/mL)
IC50 (Raoultella planticola [27]): 35.7 µM
MIC (Candida parapsilosis): > 227 µM
MBC (Staphylococcus aureus [28]): 28.3 µM (≈ 15.6 µg/mL)
MFC (Candida albicans [29]): 14.2 µM (≈ 7.82 µg/mL)
Activity (THP-1 [30]): Toxic
MFC (Candida albicans [31]): 56.7 µM (≈ 31.2 µg/mL)
MIC (Candida albicans [32]): 14.2 µM (≈ 7.82 µg/mL)
MIC (Pichia sporocuriosa [33]): 7.1 µM (≈ 3.91 µg/mL)
MIC (Staphylococcus aureus [34]): 14.1 µM (≈ 7.76 µg/mL)
MIC (Candida albicans [35]): > 227 µM

COc1ccc(-n2cc(COc3ccc(/C=N/Nc4nc(-c5cc6c(ccc7ccccc76)oc5=O)cs4)cc3)nn2)cc1
selectivity ratio [1]: 5.12
IC50 (Micrococcus luteus [2]; Micrococcus luteus, MTCC 2470, 24 h, read-out: IC50): 40.2 µM
IC50 (Escherichia coli [3]; [37]): 127 µM
MIC (Staphylococcus aureus [4]): > 208 µM
MBC (Raoultella planticola [5]): 12.9 µM (≈ 7.75 µg/mL)
MIC (Bacillus subtilis [6]): 6.5 µM (≈ 3.9 µg/mL)
MIC (Raoultella planticola [7]): 3.1 µM (≈ 1.86 µg/mL)
MIC (Pichia kudriavzevii): > 208 µM
MIC (Nakaseomyces glabratus): > 208 µM
MFC (Pichia sporocuriosa [8]): 13 µM (≈ 7.81 µg/mL)
MIC (Candida albicans [9]): > 208 µM
IC50 (Bacillus subtilis [10]): 37.5 µM
MIC (Micrococcus luteus [11]): 12.9 µM (≈ 7.75 µg/mL)
MBC (Micrococcus luteus [12]): 25.9 µM (≈ 15.6 µg/mL)
Activity (THP-1 [13]): Toxic
MIC (Candida albicans [14]): > 208 µM
MIC (Candida albicans [15]): > 208 µM
CC50 [16]: 33.3 µM
IC50 (Staphylococcus aureus [17]; Staphylococcus aureus, MLS16 MTCC 2940, 24 h, read-out: IC50): 51.1 µM
IC50 (Staphylococcus aureus [18]; [40]): 30.1 µM
MIC (Candida albicans [19]): > 208 µM
IC50 (Pseudomonas aeruginosa [20]; [38]): 30.4 µM
MIC (Pseudomonas aeruginosa [21]): 12.9 µM (≈ 7.75 µg/mL)
MBC (Pseudomonas aeruginosa [22]): 51.9 µM (≈ 31.2 µg/mL)
IC50 (Candida albicans [23]; [39]): 45.6 µM
MIC (Candida albicans [24]): 6.5 µM (≈ 3.9 µg/mL)
MIC ([Candida] aaseri): > 208 µM
MIC (Escherichia coli [25]): 6.5 µM (≈ 3.9 µg/mL)
MBC (Bacillus subtilis [26]): 12.9 µM (≈ 7.75 µg/mL)
IC50 (Raoultella planticola [27]): 59.7 µM
MIC (Candida parapsilosis): > 208 µM
MBC (Staphylococcus aureus [28]): 21.4 µM (≈ 12.9 µg/mL)
MFC (Candida albicans [29]): 13 µM (≈ 7.81 µg/mL)
Activity (THP-1 [30]): Toxic
MFC (Candida albicans [31]): 51.9 µM (≈ 31.2 µg/mL)
MIC (Candida albicans [32]): 13 µM (≈ 7.81 µg/mL)
MIC (Pichia sporocuriosa [33]): 6.5 µM (≈ 3.9 µg/mL)
MIC (Staphylococcus aureus [34]): 6.5 µM (≈ 3.9 µg/mL)
MIC (Candida albicans [35]): > 208 µM
MBC (Escherichia coli [36]): 25.9 µM (≈ 15.6 µg/mL)

COc1ccc(-n2cc(COc3ccc(/C=N/Nc4nc(-c5cc6cccc(Br)c6oc5=O)cs4)cc3)nn2)cc1
IC50 (Micrococcus luteus [2]): Not Active
IC50 (Escherichia coli [3]): Not Active
MIC (Staphylococcus aureus [4]): > 199 µM
MBC (Raoultella planticola [5]): 12.3 µM (≈ 7.74 µg/mL)
MIC (Bacillus subtilis [6]): 6.1 µM (≈ 3.84 µg/mL)
MIC (Raoultella planticola [7]): 6.1 µM (≈ 3.84 µg/mL)
IC50 (Bacillus subtilis [10]): 35.4 µM
MIC (Micrococcus luteus [11]): > 199 µM
IC50 (Staphylococcus aureus [17]): Not Active
IC50 (Staphylococcus aureus [18]; [40]): 32.6 µM
IC50 (Pseudomonas aeruginosa [20]): Not Active
MIC (Pseudomonas aeruginosa [21]): > 199 µM
IC50 (Candida albicans [23]): Not Active
MIC (Escherichia coli [25]): > 199 µM
MBC (Bacillus subtilis [26]): 12.3 µM (≈ 7.74 µg/mL)
IC50 (Raoultella planticola [27]): 42.3 µM
MBC (Staphylococcus aureus [28]): 12.3 µM (≈ 7.74 µg/mL)
MIC (Staphylococcus aureus [34]): 6.1 µM (≈ 3.84 µg/mL)
